≈ marks a conversion by molar mass, not a printed value. Calls of active or inactive are those of the source. No cut-off for these calls is given here.
Legend:
[1] = tested on: Leishmania infantum; assay: Antileishmanial activity against Leishmania infantum infected in BALB/c mouse model of visceral leishmaniasis assessed as parasite growth in liver at 50 mg/kg/day, IM administered for 21 days; assay type: functional, organism-based; details: time 21.0 day
[2] = tested on: Leishmania infantum; assay: Antileishmanial activity against Leishmania infantum infected in BALB/c mouse model of cutaneous leishmaniasis assessed as footpad lesion development at 50 mg/kg/day, ID administered for 21 days and measured after 14 weeks by Giemsa staining based analysis (reference value: 3.88 +/- 0.03); assay type: functional; details: time 21 day
[3] = tested on: Leishmania infantum; assay: Antileishmanial activity against Leishmania infantum infected in BALB/c mouse model of cutaneous leishmaniasis assessed as footpad lesion development at 50 mg/kg/day, ID administered for 21 days and measured after 2 weeks by Giemsa staining based analysis (reference value: 1.61 +/- 0.03); assay type: functional; details: time 21 day
[4] = tested on: Leishmania infantum; assay: Antileishmanial activity against Leishmania infantum infected in BALB/c mouse model of cutaneous leishmaniasis assessed as parasite growth in spleen at 50 mg/kg/day, ID administered for 21 days; assay type: functional, organism-based; details: time 21.0 day
[5] = tested on: Leishmania infantum; assay: Antileishmanial activity against Leishmania infantum infected in BALB/c mouse model of visceral leishmaniasis assessed as footpad lesion development at 50 mg/kg/day, IM administered for 21 days and measured after 4 weeks by Giemsa staining based analysis (reference value: 28.01 +/- 0.65); assay type: functional; details: time 21 day
[6] = tested on: Leishmania infantum; assay: Antileishmanial activity against Leishmania infantum infected in BALB/c mouse model of visceral leishmaniasis assessed as footpad lesion development at 50 mg/kg/day, IM administered for 21 days and measured after 6 weeks by Giemsa staining based analysis (reference value: 25.81 +/- 0.84); assay type: functional; details: time 21 day
[7] = tested on: Leishmania infantum; assay: Antileishmanial activity against Leishmania infantum infected in BALB/c mouse model of cutaneous leishmaniasis assessed as footpad lesion development at 50 mg/kg/day, ID administered for 21 days and measured after 24 weeks by Giemsa staining based analysis (reference value: 4.90 +/- 0.02); assay type: functional; details: time 21 day
[8] = tested on: Leishmania infantum; assay: Antileishmanial activity against Leishmania infantum infected in BALB/c mouse model of cutaneous leishmaniasis assessed as footpad lesion development at 50 mg/kg/day, ID administered for 21 days and measured after 28 weeks by Giemsa staining based analysis (reference value: 4.92 +/- 0.01); assay type: functional; details: time 21 day
[9] = tested on: Leishmania infantum; assay: Antileishmanial activity against Leishmania infantum infected in BALB/c mouse model of visceral leishmaniasis assessed as footpad lesion development at 50 mg/kg/day, IM administered for 21 days and measured after 2 weeks by Giemsa staining based analysis (reference value: 29.73 +/- 0.63); assay type: functional; details: time 21 day
[10] = tested on: Leishmania infantum; assay: Antileishmanial activity against Leishmania infantum infected in BALB/c mouse model of cutaneous leishmaniasis assessed as footpad lesion development at 50 mg/kg/day, ID administered for 21 days and measured after 20 weeks by Giemsa staining based analysis (reference value: 4.54 +/- 0.04); assay type: functional; details: time 21 day
[11] = tested on: Leishmania infantum; assay: Antileishmanial activity against Leishmania infantum infected in BALB/c mouse model of visceral leishmaniasis assessed as footpad lesion development at 50 mg/kg/day, IM administered for 21 days and measured after 7 weeks by Giemsa staining based analysis (reference value: 24.85 +/- 0.88); assay type: functional; details: time 21 day
[12] = tested on: Leishmania infantum; assay: Antileishmanial activity against Leishmania infantum infected in BALB/c mouse model of visceral leishmaniasis assessed as footpad lesion development at 50 mg/kg/day, IM administered for 21 days and measured after 1 week by Giemsa staining based analysis (reference value: 30.43 +/- 0.60); assay type: functional; details: time 21 day
[13] = tested on: Leishmania infantum; assay: Antileishmanial activity against Leishmania infantum infected in BALB/c mouse model of cutaneous leishmaniasis assessed as footpad lesion development at 50 mg/kg/day, ID administered for 21 days and measured after 22 weeks by Giemsa staining based analysis (reference value: 4.71 +/- 0.04); assay type: functional; details: time 21 day
[14] = tested on: Leishmania tropica; assay: Antileishmanial activity against Leishmania tropica MHOM/A7/1974/SAF-K27 incubated for 48 hrs by Neubauer hemocytometer analysis; assay type: functional, organism-based; details: MHOM/A7/1974/SAF-K27, 48 h
[15] = tested on: Leishmania infantum; assay: Antileishmanial activity against Leishmania infantum infected in BALB/c mouse model of visceral leishmaniasis assessed as footpad lesion development at 50 mg/kg/day, IM administered for 21 days and measured after 5 weeks by Giemsa staining based analysis (reference value: 27.04 +/- 0.65); assay type: functional; details: time 21 day
[16] = tested on: Leishmania infantum; assay: Antileishmanial activity against Leishmania infantum infected in BALB/c mouse model of cutaneous leishmaniasis assessed as footpad lesion development at 50 mg/kg/day, ID administered for 21 days and measured after 6 weeks by Giemsa staining based analysis (reference value: 2.40 +/- 0.03); assay type: functional; details: time 21 day
[17] = tested on: Leishmania infantum; assay: Antileishmanial activity against Leishmania infantum infected in BALB/c mouse model of cutaneous leishmaniasis assessed as footpad lesion development at 50 mg/kg/day, ID administered for 21 days and measured after 32 weeks by Giemsa staining based analysis (reference value: 4.91 +/- 0.01); assay type: functional; details: time 21 day
[18] = tested on: Leishmania infantum; assay: Antileishmanial activity against Leishmania infantum infected in BALB/c mouse model of visceral leishmaniasis assessed as footpad lesion development at 50 mg/kg/day, IM administered for 21 days and measured after 10 weeks by Giemsa staining based analysis (reference value: 21.58 +/- 0.74); assay type: functional; details: time 21 day
[19] = tested on: Leishmania infantum; assay: Antileishmanial activity against Leishmania infantum infected in BALB/c mouse model of visceral leishmaniasis assessed as footpad lesion development at 50 mg/kg/day, IM administered for 21 days and measured after 11 weeks by Giemsa staining based analysis (reference value: 20.71 +/- 0.48); assay type: functional; details: time 21 day
[20] = tested on: Leishmania infantum; assay: Antileishmanial activity against Leishmania infantum infected in BALB/c mouse model of visceral leishmaniasis assessed as footpad lesion development at 50 mg/kg/day, IM administered for 21 days and measured after 8 weeks by Giemsa staining based analysis (reference value: 23.84 +/- 0.93); assay type: functional; details: time 21 day
[21] = tested on: Leishmania infantum; assay: Antileishmanial activity against Leishmania infantum infected in BALB/c mouse model of visceral leishmaniasis assessed as footpad lesion development at 50 mg/kg/day, IM administered for 21 days and measured after 9 weeks by Giemsa staining based analysis (reference value: 22.75 +/- 0.71); assay type: functional; details: time 21 day
[22] = tested on: Leishmania infantum; assay: Antileishmanial activity against Leishmania infantum infected in BALB/c mouse model of cutaneous leishmaniasis assessed as footpad lesion development at 50 mg/kg/day, ID administered for 21 days and measured after 18 weeks by Giemsa staining based analysis (reference value: 4.42 +/- 0.03); assay type: functional; details: time 21 day
[23] = tested on: DHFR (human) versus PTR1 (Leishmania major); assay: Selectivity index, ratio of IC50 for human DHFR to IC50 for Leishmania major PTR1; assay type: toxicity; details: human DHFR enzyme and Leishmania major PTR1 enzyme, read-out: Ratio IC50
[24] = target: T1, Pteridine reductase 1 (Leishmania major, UniProt Q01782); assay: Inhibition of recombinant Leishmania major PTR1 expressed in Escherichia coli BL21 using folic acid as substrate in presence of NADPH
T1 sequence (Q01782 whole entry): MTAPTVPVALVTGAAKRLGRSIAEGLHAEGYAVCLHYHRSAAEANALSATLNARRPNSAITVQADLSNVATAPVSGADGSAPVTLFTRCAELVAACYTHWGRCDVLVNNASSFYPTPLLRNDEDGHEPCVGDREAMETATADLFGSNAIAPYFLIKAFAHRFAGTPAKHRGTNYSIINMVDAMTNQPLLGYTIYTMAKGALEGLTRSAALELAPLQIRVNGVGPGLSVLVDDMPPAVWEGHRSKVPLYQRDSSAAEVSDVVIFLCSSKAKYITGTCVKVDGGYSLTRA

With `CN1CCN(c2ncc3nc(NC(=O)c4ccc(Cl)c(Cl)c4)sc3n2)CC1` the Activity [1] was “inactive”, the Activity [2] was 3.89 and the Activity [3] was 1.61. The Activity [4] was “Active”, the Activity [5] was 27.9 and the Activity [6] was 25.72. The Activity [7] was 4.89, the Activity [8] was 4.83 and the Activity [9] was 29.53. For the same compound, the Activity [10] was 4.53, the Activity [11] was 24.43 and the Activity [12] was 30.3. The Activity [13] was 4.69, the IC50 [14] was 7.71 µg/mL (≈ 18.2 µM) and the Activity [15] was 26.63. For the same compound, the Activity [16] was 2.41, the Activity [17] was 4.73 and the Activity [18] was 21.12. For the same compound, the Activity [19] was 20.13, the Activity [20] was 23.36 and the Activity [21] was 22.18. For the same compound, the Activity [22] was 4.4, the selectivity ratio [23] was 312 and the IC50 [24] was 21.3 µM.
With `CCOC(=O)N1CCN(c2ncc3nc(NC(=O)c4ccc(Cl)c(Cl)c4)sc3n2)CC1` the Activity [1] was “Active”, the Activity [2] was 3.81 and the Activity [3] was 1.6. The Activity [4] was “Active”, the Activity [5] was 27.85 and the Activity [6] was 25.71. It also gave an Activity [7] of 4.9, an Activity [8] of 3.8 and an Activity [9] of 29.54. For the same compound, the Activity [10] was 4.52, the Activity [11] was 26.22 and the Activity [12] was 30.63. For the same compound, the Activity [13] was 4.69, the IC50 [14] was 0.039 µg/mL (≈ 0.081 µM) and the Activity [15] was 26.78. It also gave an Activity [16] of 2.4, an Activity [17] of 2.42 and an Activity [18] of 27.91. It also gave an Activity [19] of 28.55, an Activity [20] of 26.84 and an Activity [21] of 27.35. For the same compound, the Activity [22] was 4.4, the selectivity ratio [23] was 42.6 and the IC50 [24] was 123 µM.
In the case of `CN(C)c1ncc2nc(NC(=O)c3ccc(Cl)c([N+](=O)[O-])c3)sc2n1`, the Activity [1] is reported as “Active”, the Activity [2] is reported as 3.83 and the Activity [3] is reported as 1.59. The Activity [4] was “Active”, the Activity [5] was 27.83 and the Activity [6] was 26.28. It also gave an Activity [7] of 4.88, an Activity [8] of 3.71 and an Activity [9] of 29.49. The Activity [10] was 4.53, the Activity [11] was 26.77 and the Activity [12] was 30.38. The Activity [13] was 4.67, the IC50 [14] was 7.14 µg/mL (≈ 18.8 µM) and the Activity [15] was 26.95. The Activity [16] was 2.39, the Activity [17] was 2.08 and the Activity [18] was 29.09. It also gave an Activity [19] of 29.85, an Activity [20] of 27.42 and an Activity [21] of 28.13. It also gave an Activity [22] of 4.41, a selectivity ratio [23] of 7.02 and an IC50 [24] of 680 µM.
